Data taken from ChEMBL document CHEMBL1201862, “PubChem BioAssay data set” (2004).
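Exposure lasted 48 hours, with cells grown in 96-well plates and compounds tested at five concentrations. Abbreviation: GI50, concentration required for 50% inhibition of growth.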 Activity calls are given as the source filed them. Rule as the data show it: active = GI50 up to about 1.1 µM and inactive = higher.

How the values were obtained:
Assay in all cases: NCI anticancer screen, dose series, 48 h
SK-OV-3 = test system: SK-OV-3
MCF7 = test system: MCF7
UACC-62 = test system: UACC-62
SF-268 = test system: SF-268
MOLT-4 = test system: MOLT-4
NCI-H226 = test system: NCI-H226
A498 = test system: A498
HL-60 = test system: HL-60
OVCAR-5 = test system: OVCAR-5
SN12C = test system: SN12C
UACC-257 = test system: UACC-257
SF-539 = test system: SF-539
CAKI-1 = test system: CAKI-1
PC-3 = test system: PC-3
MDA-MB-231 = test system: MDA-MB-231
MDA-MB-435 = test system: MDA-MB-435
KM12 = test system: KM12
IGROV-1 = test system: IGROV-1
HOP-92 = test system: HOP-92
RXF 393 = test system: RXF 393

| SMILES | GI50 (SK-OV-3) | GI50 (MCF7) | GI50 (UACC-62) | GI50 (SF-268) | GI50 (MOLT-4) | GI50 (NCI-H226) | GI50 (A498) | GI50 (HL-60) | GI50 (OVCAR-5) | GI50 (SN12C) | GI50 (UACC-257) | GI50 (SF-539) | GI50 (CAKI-1) | GI50 (PC-3) | GI50 (MDA-MB-231) | GI50 (MDA-MB-435) | GI50 (KM12) | GI50 (IGROV-1) | GI50 (HOP-92) | GI50 (RXF 393) |
| --- | --- | --- | --- | --- | --- | --- | --- | --- | --- | --- | --- | --- | --- | --- | --- | --- | --- | --- | --- | --- |
| COC(=O)C1=C(C(=O)NNc2ccccc2)N(c2cccnc2Cl)C(c2ccccc2)=CC1c1ccccc1 (stereo not drawn) | > 100 µM (inactive) | 34.9 µM (inactive) | 57.7 µM (inactive) | 88.1 µM (inactive) | 15.2 µM (inactive) | > 100 µM (inactive) | > 100 µM (inactive) | 37.2 µM (inactive) | > 100 µM (inactive) | > 100 µM (inactive) | 41.4 µM (inactive) | 72.4 µM (inactive) | 56.5 µM (inactive) | 31.3 µM (inactive) | 56.1 µM (inactive) | 29.5 µM (inactive) | 29.6 µM (inactive) | > 100 µM (inactive) | – | – |
| CCOC(=O)C1Cc2ccc(C)cc2C1=O (stereo not drawn) | > 100 µM (inactive) | > 100 µM (inactive) | 49.1 µM (inactive) | 79.3 µM (inactive) | 39.4 µM (inactive) | > 100 µM (inactive) | – | 23.6 µM (inactive) | > 100 µM (inactive) | 82.6 µM (inactive) | > 100 µM (inactive) | > 100 µM (inactive) | > 100 µM (inactive) | > 100 µM (inactive) | > 100 µM (inactive) | 54.5 µM (inactive) | > 100 µM (inactive) | 70.6 µM (inactive) | > 100 µM (inactive) | – |
| COc1ccc(NC(=O)Oc2cc(C)c3ccc(=O)cc-3o2)c(OC)c1.COc1ccc(NC(=O)Oc2ccc3c(C)cc(=O)oc3c2)c(OC)c1 | > 100 µM (inactive) | – | > 100 µM (inactive) | > 100 µM (inactive) | > 100 µM (inactive) | > 100 µM (inactive) | 31.9 µM (inactive) | – | > 100 µM (inactive) | > 100 µM (inactive) | – | > 100 µM (inactive) | > 100 µM (inactive) | > 100 µM (inactive) | > 100 µM (inactive) | > 100 µM (inactive) | 78.7 µM (inactive) | > 100 µM (inactive) | – | > 100 µM (inactive) |
| CN1C(=O)CC2CCC(=O)N2c2cccnc21 (stereo not drawn) | – | > 100 µM (inactive) | 75.5 µM (inactive) | > 100 µM (inactive) | – | > 100 µM (inactive) | – | > 100 µM (inactive) | – | > 100 µM (inactive) | > 100 µM (inactive) | > 100 µM (inactive) | > 100 µM (inactive) | – | > 100 µM (inactive) | > 100 µM (inactive) | > 100 µM (inactive) | > 100 µM (inactive) | – | – |
| COC(C(=O)NCCCCNC(=O)C(OC)c1ccccc1)c1ccccc1 (stereo not drawn) | > 100 µM (inactive) | – | > 100 µM (inactive) | > 100 µM (inactive) | > 100 µM (inactive) | > 100 µM (inactive) | > 100 µM (inactive) | > 100 µM (inactive) | > 100 µM (inactive) | > 100 µM (inactive) | > 100 µM (inactive) | > 100 µM (inactive) | > 100 µM (inactive) | – | – | – | > 100 µM (inactive) | > 100 µM (inactive) | > 100 µM (inactive) | > 100 µM (inactive) |
| CC(=O)C1C(=O)C(=O)N(c2cccc([N+](=O)[O-])c2)C1=O (stereo not drawn) | > 100 µM (inactive) | > 100 µM (inactive) | > 100 µM (inactive) | > 100 µM (inactive) | > 100 µM (inactive) | > 100 µM (inactive) | – | > 100 µM (inactive) | > 100 µM (inactive) | > 100 µM (inactive) | > 100 µM (inactive) | > 100 µM (inactive) | > 100 µM (inactive) | > 100 µM (inactive) | > 100 µM (inactive) | > 100 µM (inactive) | > 100 µM (inactive) | > 100 µM (inactive) | > 100 µM (inactive) | > 100 µM (inactive) |
| CC(C)(C)OC(=O)Nc1nnc(S(N)(=O)=O)s1 | > 100 µM (inactive) | > 100 µM (inactive) | > 100 µM (inactive) | > 100 µM (inactive) | > 100 µM (inactive) | > 100 µM (inactive) | > 100 µM (inactive) | > 100 µM (inactive) | > 100 µM (inactive) | > 100 µM (inactive) | > 100 µM (inactive) | > 100 µM (inactive) | > 100 µM (inactive) | – | > 100 µM (inactive) | > 100 µM (inactive) | > 100 µM (inactive) | – | > 100 µM (inactive) | > 100 µM (inactive) |
| CC12CCC(CC1)C(C)(C)O2 [EUCALYPTOL] | 57.5 µM (inactive) | 0.644 µM (active) | 10 µM (inactive) | 42 µM (inactive) | 13.7 µM (inactive) | – | 0.923 µM (active) | 17.1 µM (inactive) | 64.7 µM (inactive) | 7.08 µM (inactive) | 16.9 µM (inactive) | 18.3 µM (inactive) | – | – | – | – | 33.9 µM (inactive) | 30.4 µM (inactive) | 24.3 µM (inactive) | 13.6 µM (inactive) |
